This note sets out measurements from ChEMBL document CHEMBL1201862, “PubChem BioAssay data set” (2004).

Structures are written as SMILES.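 Five compound concentrations were applied to cells in 96-well plates for 48 hours; endpoints were derived by simple linear interpolation of the resulting dose-response curve. Here, GI50 denotes the concentration required for 50% inhibition of growth.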 Activity calls are given as the source filed them. Rule as the data show it: active = GI50 up to about 1.1 µM and inactive = higher. Residues, ends and D or L forms follow the SMILES beside them. Bounds are passed on as bounds.

Among the test systems are DU-145; SF-268; M14; HCC 2998; NCI-H226; OVCAR-8; SW-620; T47D; OVCAR-5; HT-29; ACHN; A549; UACC-62; NCI-H23; EKVX; RXF 393; MDA-MB-435; SK-OV-3; SNB-75; SF-539.
Holding throughout (experiment): growth of human tumour cells (NCI), 48 h

For the compound `Cc1cc(Cl)nc(NC(=O)CSc2ccc(Cl)cc2)n1`, the GI50 was > 100 µM (inactive) with DU-145; > 100 µM (inactive) with SF-268; > 100 µM (inactive) with M14; > 100 µM (inactive) with HCC 2998; 22.1 µM (inactive) with NCI-H226; > 100 µM (inactive) in the experiment on OVCAR-8. Besides, the GI50 in the experiment with SW-620, in the experiment on T47D, in the experiment on OVCAR-5, in the experiment on HT-29, with ACHN and in the experiment with A549 was > 100 µM (inactive) in each case. The GI50 in the experiment with UACC-62, in the experiment on NCI-H23, in the experiment with EKVX, in the experiment on RXF 393 and in the experiment with MDA-MB-435 was > 100 µM (inactive) in each case.

Turning to `CC(O)(c1ccccc1)c1nccc2ccccc12` (stereo not drawn), the GI50 is 96.6 µM (inactive) in the experiment with SK-OV-3; > 100 µM (inactive) in the experiment on DU-145; 95.7 µM (inactive) in the experiment with SF-268; 74.5 µM (inactive) with M14; > 100 µM (inactive) in the experiment with HCC 2998; 31.5 µM (inactive) in the experiment on NCI-H226. For the same compound, the GI50 with OVCAR-8 was > 100 µM (inactive); in the experiment on SNB-75, 53.7 µM (inactive); in the experiment with SW-620, 77.6 µM (inactive); in the experiment with T47D, 68.1 µM (inactive); in the experiment with OVCAR-5 it was 67.1 µM (inactive); with HT-29, 74.3 µM (inactive). Further, the GI50 with ACHN was > 100 µM (inactive); in the experiment on A549 it was 87.3 µM (inactive); in the experiment with UACC-62, 50.6 µM (inactive); with NCI-H23, > 100 µM (inactive); in the experiment on RXF 393 it was > 100 µM (inactive); in the experiment on MDA-MB-435, 18.2 µM (inactive).

As to `Cc1sc2c(c1C)C(=O)c1cccn1-2`, the GI50 in the experiment on SK-OV-3 is > 100 µM (inactive); in the experiment with DU-145 it was 95.3 µM (inactive); in the experiment with SF-268 it was > 100 µM (inactive); in the experiment on M14 it was > 100 µM (inactive); with HCC 2998 it was > 100 µM (inactive); in the experiment on NCI-H226, > 100 µM (inactive). For the same compound, the GI50 in the experiment on OVCAR-8 is > 100 µM (inactive); with SNB-75, 35.2 µM (inactive); in the experiment on SW-620, 72.6 µM (inactive); in the experiment with T47D it was 39.8 µM (inactive); in the experiment with OVCAR-5, > 100 µM (inactive); in the experiment on HT-29 it was 53.8 µM (inactive). The GI50 is > 100 µM (inactive) in the experiment on ACHN; 60.5 µM (inactive) in the experiment with A549; 62.7 µM (inactive) in the experiment with UACC-62; 56.4 µM (inactive) in the experiment on EKVX; 59 µM (inactive) in the experiment on RXF 393; 56.6 µM (inactive) in the experiment with MDA-MB-435.

As for `O=C(C#CP(=O)(O)c1ccccc1)c1ccccc1`, the GI50 in the experiment with SK-OV-3, with DU-145, in the experiment with SF-268, in the experiment with M14, in the experiment with HCC 2998 and in the experiment on OVCAR-8 was > 100 µM (inactive) throughout. For the same compound, the GI50 in the experiment on SNB-75, with SW-620, with T47D, in the experiment on OVCAR-5, in the experiment with HT-29 and in the experiment on ACHN was > 100 µM (inactive) throughout. Further, the GI50 with A549, in the experiment with UACC-62, in the experiment on NCI-H23, in the experiment with EKVX, with MDA-MB-435 and with SF-539 was > 100 µM (inactive) each time.

As for `C=C(CCOC)CCC1CCCCC(=C)[C@H]1OC(C)=O` (stereo partly drawn), the GI50 with SK-OV-3 was > 100 µM (inactive); in the experiment on DU-145, > 100 µM (inactive); with SF-268, > 100 µM (inactive); in the experiment with M14 it was > 100 µM (inactive); with NCI-H226, 97.3 µM (inactive); in the experiment on OVCAR-8 it was > 100 µM (inactive). The GI50 with SNB-75, in the experiment with SW-620, with T47D, with OVCAR-5, in the experiment with HT-29 and in the experiment with ACHN was > 100 µM (inactive) throughout. Besides, the GI50 in the experiment with A549 is > 100 µM (inactive); in the experiment on UACC-62, > 100 µM (inactive); in the experiment with NCI-H23, 93.8 µM (inactive); in the experiment with EKVX it was > 100 µM (inactive); in the experiment with MDA-MB-435, > 100 µM (inactive); in the experiment on SF-539, > 100 µM (inactive).

Regarding `O=Cc1cc([N+](=O)[O-])no1`, the GI50 in the experiment with SK-OV-3 is > 100 µM (inactive); in the experiment on DU-145 it was 80.5 µM (inactive); in the experiment on M14 it was 17.1 µM (inactive); in the experiment on HCC 2998 it was 35.2 µM (inactive); in the experiment with NCI-H226, 78.9 µM (inactive); in the experiment with OVCAR-8, 41 µM (inactive). In addition, the GI50 in the experiment on SNB-75 is > 100 µM (inactive); in the experiment on SW-620, 14.8 µM (inactive); in the experiment with T47D, 50.5 µM (inactive); in the experiment with OVCAR-5 it was 71.8 µM (inactive); in the experiment on HT-29, 23 µM (inactive); in the experiment on UACC-62, 19.7 µM (inactive). In addition, the GI50 in the experiment with NCI-H23 was 33.8 µM (inactive); with RXF 393, > 100 µM (inactive); in the experiment on MDA-MB-435, 15.2 µM (inactive).

On to `Cc1cc(-c2nc3ccccc3s2)ccc1NC(=O)[C@H](C)N`, for which the GI50 was 14.9 µM (inactive) in the experiment with SK-OV-3; 15.3 µM (inactive) in the experiment on DU-145; 18.3 µM (inactive) in the experiment on SF-268; 3.14 µM (inactive) in the experiment with M14; 10.6 µM (inactive) with HCC 2998; 0.942 µM (active) with NCI-H226. For the same compound, the GI50 in the experiment with OVCAR-8 was 17.9 µM (inactive); in the experiment with SNB-75, 12.5 µM (inactive); in the experiment on SW-620 it was 14.8 µM (inactive); in the experiment on T47D, 0.128 µM (active); in the experiment on OVCAR-5, 0.441 µM (active); in the experiment with HT-29, 14.4 µM (inactive). For the same compound, the GI50 with ACHN is 13.6 µM (inactive); in the experiment on A549, 13.7 µM (inactive); in the experiment with UACC-62, 14.8 µM (inactive); in the experiment with NCI-H23, 16.5 µM (inactive); with RXF 393 it was 12.3 µM (inactive); with MDA-MB-435, 7.18 µM (inactive).

With `C/C(=N\NC(N)=S)c1ccc2c(c1)Sc1ccccc1O2`, the GI50 was 4.11 µM (inactive) in the experiment on SK-OV-3; 28.1 µM (inactive) in the experiment on DU-145; 2.36 µM (inactive) with SF-268; 2.4 µM (inactive) in the experiment on M14; 1.66 µM (inactive) with HCC 2998; 9.23 µM (inactive) with NCI-H226. Also, the GI50 with OVCAR-8 was 2.48 µM (inactive); in the experiment on SNB-75, 2.53 µM (inactive); with SW-620, 2.56 µM (inactive); with T47D, 6.61 µM (inactive); with OVCAR-5, 4.01 µM (inactive); with HT-29 it was 1.61 µM (inactive). The GI50 in the experiment with ACHN was 4.55 µM (inactive); with A549, 2.5 µM (inactive); in the experiment on UACC-62, 2.42 µM (inactive); with NCI-H23 it was 3.7 µM (inactive); with EKVX, 1.24 µM (inactive); with MDA-MB-435, 0.29 µM (active). In addition, the GI50 with SF-539 was 2.26 µM (inactive).

Regarding `Cc1cc2cc3c(cc2c(-c2ccc(N)cc2)n1)OCO3`, the GI50 in the experiment on SK-OV-3 is > 100 µM (inactive); in the experiment on DU-145 it was 49.9 µM (inactive); with SF-268, 22.3 µM (inactive); in the experiment with M14, 81.8 µM (inactive); in the experiment on OVCAR-8, 81.7 µM (inactive); in the experiment with SW-620, 31.6 µM (inactive). Besides, the GI50 in the experiment on T47D was 29.6 µM (inactive); in the experiment on OVCAR-5 it was 36.6 µM (inactive); with HT-29, 22.2 µM (inactive); with ACHN it was 39.5 µM (inactive); in the experiment on A549 it was 74.1 µM (inactive); in the experiment on UACC-62, 30.8 µM (inactive). For the same compound, the GI50 in the experiment on NCI-H23 is 61.2 µM (inactive); with EKVX, 35.4 µM (inactive); in the experiment on MDA-MB-435, 76.6 µM (inactive); in the experiment with SF-539 it was > 100 µM (inactive).

Consider `CCC(C)C(NC(=O)C(CC(C)C)NC(=O)CNC(=O)C(NC(=O)C1CCCN1C(=O)C(CC(C)C)NC(=O)C(N)Cc1ccccc1)C(C)CC)C(=O)NC(CC(C)C)C(N)=O` (stereo not drawn) (H-FLPIGLIL-NH2; configuration not given here), for which the GI50 with SK-OV-3, in the experiment on DU-145, in the experiment on SF-268, in the experiment on M14, in the experiment on NCI-H226 and with OVCAR-8 was > 75 µM (inactive) each time. Besides, the GI50 in the experiment with SW-620, in the experiment with T47D, in the experiment on OVCAR-5, in the experiment on HT-29, with ACHN and in the experiment with A549 was > 75 µM (inactive) each time. In addition, the GI50 in the experiment on UACC-62, in the experiment with NCI-H23, with EKVX, with MDA-MB-435 and in the experiment on SF-539 was > 75 µM (inactive) each time.

Turning to `O=C([O-])Cc1ccccc1.[Na+]` [SODIUM PHENYLACETATE], the GI50 with SK-OV-3 is > 2000 µM (inactive); with SF-268 it was 1340 µM (inactive); with M14, > 2000 µM (inactive); in the experiment on HCC 2998, 1210 µM (inactive); in the experiment on NCI-H226, 447 µM (inactive); with OVCAR-8 it was 611 µM (inactive). Besides, the GI50 was 776 µM (inactive) in the experiment with SNB-75; 804 µM (inactive) with SW-620; 774 µM (inactive) with T47D; > 2000 µM (inactive) with OVCAR-5; 931 µM (inactive) with HT-29; 1180 µM (inactive) with ACHN. Further, the GI50 in the experiment with A549 was 1410 µM (inactive); in the experiment on UACC-62 it was 1370 µM (inactive); with NCI-H23, > 2000 µM (inactive); in the experiment on EKVX, > 2000 µM (inactive); with RXF 393, 582 µM (inactive); with MDA-MB-435, 1000 µM (inactive). For the same compound, the GI50 in the experiment on SF-539 was > 2000 µM (inactive).
